This note sets out measurements from US20210255193A1, “LYSINE REACTIVE PROBES AND USES THEREOF” (The Scripps Research Institute, priority 2017, published 2021).

SMILES strings stand for the structures.

Assay [1] deals with T1, SIN3A-interacting proteins MAX, MNT and MXI1 (Homo sapiens, UniProt Q96ST3).
T1 construct: expressed in transfected cells; host or cells: SILAC HEK 293T
The assay can be described thus: ABPP-SILAC IP experiment for SIN3A interacting proteins. Particulars: 21 50 μM. The format is binding. The method, then:
ABPP-SILAC IP experiment for SIN3A interacting proteins. All SILAC experiments were performed using the isotopically labeled human HEK 293T cell line generated by 8 passages in either light (100 μg ml^−1 each of L-arginine and L-lysine) or heavy (100 μg ml^−1 each of [^13C6^15N4]L-arginine and [^13C6^15N2]L-lysine) SILAC DMEM media (Thermo Scientific) supplemented with 10% dialyzed fetal calf serum, penicillin, streptomycin and glutamine. 2×10^5 SILAC HEK 293T cells were plated in 6 cm dishes in either heavy or light labeled SILAC media. Cells were transfected the next day with 1 μg of FLAG-GFP, or FLAG-SIN3A wild type, K155R, or K155W constructs as indicated. After 48 hours, cells were rinsed with ice-cold PBS and suspended in cold IP-lysis buffer (0.5% Chaps, 50 mM Hepes pH 7.4, 150 mM NaCl, and EDTA-free protease inhibitors and phosphatase inhibitors (Roche)) by gentle sonication. Samples were rotated for 30 minutes at 4° C. to complete lysis. For compound treatment experiments, 50 μM (final concentration) of 21 was added to samples prior to rotation. Samples were clarified by centrifugation for 1 minute at 16,000 rpm, and protein concentration was measured using the DC Protein Assay kit (Bio-Rad). Samples were normalized to 2 mg/mL by addition of cold IP-lysis buffer. 25 μL of anti-FLAG-M2 beads was added to the clarified supernatant and incubated for 3 h while rotating at 4° C. Beads were washed three times with cold PBS, and then eluted with 40 μL of […] for 10 min at 65° C. […] LC-MS spectra were collected and analyzed as described above with the following modifications. […] A list of all proteins enriched preferentially by SIN3A was generated from a comparison of SIN3A wild type vs GFP immunoprecipitations, including all proteins with at least two distinct quantified peptide sequences and a median ratio greater than or equal to 5 (R>5). […] Furthermore, if there were at least two quantified unique peptides, the median ratio of each protein's unique peptides (not occurring in any other human protein) were reported.

Assay [2] addresses T2, EIF5A2 Eukaryotic translation initiation factor 5A-2 (Homo sapiens, UniProt Q9GZV4).
T2 construct: isoTOP-ABPP experiments performed in cell lysates (in vitro); endogenous in cells; host or cells: soluble proteome of human cancer cell lines (MDA-MB-231; Ramos and Jurkat also prepared)
The assay can be described thus: competitive isoTOP-ABPP. The assay is classed as binding. Particulars: 50 uM, in vitro. The method in brief:
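Cell lysate treated in vitro with fragments (50 μM activated esters, 100 μM guanidinylating agents) or DMSO, labelled 1 h at ambient temperature with 0.1 mM STP-alkyne, CuAAC-tagged with light/heavy TEV tags, analysed by MS. R = DMSO/compound MS1 peak-area ratio; lysines with R≥4 called liganded.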

T2 sequence (Q9GZV4 whole entry): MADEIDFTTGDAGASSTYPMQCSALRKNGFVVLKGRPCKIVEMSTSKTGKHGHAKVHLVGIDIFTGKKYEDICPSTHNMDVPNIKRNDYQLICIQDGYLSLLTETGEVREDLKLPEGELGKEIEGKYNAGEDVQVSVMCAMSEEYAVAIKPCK
T1 sequence (Q96ST3 1-400): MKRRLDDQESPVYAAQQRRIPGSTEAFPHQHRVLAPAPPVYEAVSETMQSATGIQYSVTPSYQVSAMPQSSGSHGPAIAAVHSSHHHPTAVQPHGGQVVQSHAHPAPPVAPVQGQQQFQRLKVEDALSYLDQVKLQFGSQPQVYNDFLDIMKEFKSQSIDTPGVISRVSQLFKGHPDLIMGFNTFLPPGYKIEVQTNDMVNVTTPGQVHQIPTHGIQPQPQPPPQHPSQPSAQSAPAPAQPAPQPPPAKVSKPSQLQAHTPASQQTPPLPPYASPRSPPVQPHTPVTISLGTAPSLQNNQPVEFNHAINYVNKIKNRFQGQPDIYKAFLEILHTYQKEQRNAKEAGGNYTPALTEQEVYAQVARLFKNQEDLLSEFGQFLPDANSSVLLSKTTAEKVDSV

As to `O=C(Oc1c(F)c(F)c(F)c(F)c1F)c1cc(C(F)(F)F)cc(C(F)(F)F)c1` [fragment 21, Pentafluorophenyl 3,5-bis(trifluoromethyl)benzoate], the “effect on co-immunoprecipitation of MAX, MNT and MXI1 with WT-SIN3A” value in assay [1] is given as “not affected”. For the same molecule, the “R value (DMSO/fragment) for probe 1 labeling” value in assay [2] (Q9GZV4_K47, 231 sol) was found to be 5.0.

For the molecule `O=C(CC12CC3CC(CC(C3)C1)C2)Oc1ccc([N+](=O)[O-])cc1[N+](=O)[O-]` [fragment 38, 2,4-Dinitrophenyl 2-(adamantan-1-yl)acetate], in assay [2] (sol, 231), the “isoTOP-ABPP ratio (R) at liganded lysine Q9GZV4_K47” value came out at 1.8.
